Results: patent US20080227640A1, “Plant Growth Regulation” (Bayer CropScience GmbH, priority 2004, published 2008)

Assays:
[1] = tested on: wheat (Triticum aestivum, variety "TRISO"); experiment: Root growth assay, seed treatment, wheat; type: in vivo; settings: Root Growth of 100 set as standard (untreated control), wet root weight 16 (±2) days post treatment
Source text: (§1) Plant roots are a highly proliferative tissue which allows to be seen as a reliable target organ in order to screen for plant growth regulators. The results obtained are regarded as an indication for the overall effects on a plant of plant growth regulators identified by such a system. By using this root assay one is enabled to determine the effect of a seed treatment to root growth and/or germination and/or changes in habitat of germinated plants in order to identify the possible use as a yield enhancer. Two seeds of wheat (Triticum aestivum, variety “TRISO”) or 1 seed of maize (Zea mays, variety “LORENZO”) per hole in a plastic tray which contains an architecture of 8×13 holes were placed on compost soil covered with sand. These seeds were treated with 100 μl/hole, which creates an application volume of approx. 1200 l/ha, of a compound solution at active ingredient rates equivalent to 100, 10 and 1 g a.i./ha of each compound using an robotic application system (Lizzy Spray Robotics). Six replicates in a row of each compound and concentration were done. The outer rim of the above defined plastic tray was untreated to avoid false negative effects and the middle row (No. 7) was used as untreated control. The treated seeds were allowed to dry for approx. 4 hours and subsequently covered with sand and watered. The trays were stored in climate chambers with 14 hours lighting at a temperature of 24° C. (±2) at daytime and 16° C. (±2) at night and relative humidity (rH) of 60% and daily watered. Assessments were done 16 (±2) days post treatment by counting the germinated plants and assessing the phytotoxicity symptoms and percentage. In addition, the roots were washed out and the shoots were cut directly above the seed and the wet roots were placed on dry paper towels for approximately 30 minutes and weighted afterwards. This procedure provides a similar grade of moisture to the roots so that a comparison of the weights is possible.
(§2) The effects observed concerning Root Growth given in column 2 (Root Growth of “100” is set as the standard) are directed to concentrations that are equivalent to 100, 10, 1 g a.i./ha, each.

[2] = tested on: maize (Zea mays, variety "LORENZO"); experiment: Root growth assay, seed treatment, maize; type: in vivo; settings: Root Growth of 100 set as standard (untreated control), wet root weight 16 (±2) days post treatment
Source text: as §1, §2

Compound	Root Growth ([1]; 1 g a.i./ha)	Root Growth ([1]; 10 g a.i./ha)	Root Growth ([1]; 100 g a.i./ha)	Root Growth ([2]; 1 g a.i./ha)	Root Growth ([2]; 10 g a.i./ha)	Root Growth ([2]; 100 g a.i./ha)
O=C1Nc2ccc(I)cc2C1=NNc1ncc(C(F)(F)F)cc1Cl [Compound 1.1]	209	93	170	–	–	–
O=C1Nc2ccc(Br)cc2C1=NNc1c(F)c(F)cc(F)c1F [Compound 1.2]	198	228	274	69	116	567
O=C1Nc2ccc(Br)cc2C1=NNc1ccc(Cl)cc1 [Compound 1.4]	–	–	–	105	125	99
O=C1Nc2ccc(Br)cc2C1=NNc1cc(Cl)cc(Cl)c1 [Compound 1.5]	149	117	161	–	–	–
Cc1ccc(NN=C2C(=O)Nc3ccc(Br)cc32)cc1 [Compound 1.6]	–	–	–	149	140	137
O=C1Nc2ccc([N+](=O)[O-])cc2C1=NNc1ncc(C(F)(F)F)cc1Cl [Compound 1.8]	–	–	–	174	100	48
O=C1Nc2ccc(Cl)cc2C1=NNc1cccc([N+](=O)[O-])c1 [Compound 1.10]	–	–	–	126	107	102
Cc1ccc(NN=C2C(=O)Nc3ccc([N+](=O)[O-])cc32)cc1Cl [Compound 1.12]	–	–	–	148	88	114
O=C1Nc2ccc(F)cc2C1=NNc1c(F)c(F)cc(F)c1F [Compound 1.18]	–	–	–	150	85	170
NS(=O)(=O)c1ccc(NN=C2C(=O)Nc3ccc(F)cc32)cc1 [Compound 1.23, 4-[2-(5-Fluoro-2-oxo-1,2-dihydro-3H-indol-3-ylidene)-hydrazino]-benzenesulfonamide]	135	61	65	–	–	–
O=C1Nc2ccc(I)cc2/C1=C1/Nc2ccccc2/C1=N\O [Compound 2.1, 5-Iodoindirubin-3′-oxime]	135	151	122	–	–	–
CCON=C1C(=C2C(=O)Nc3ccc(Br)cc32)Nc2ccccc21 [Compound 2.4, 5-Bromoindirubin-3′-ethyloxime]	184	115	62	–	–	–
O=C1Nc2ccc(F)cc2C1=C1Nc2ccccc2C1=NO [Compound 2.7]	182	390	172	174	159	118
